{
  "source": "patent EP0403882A2",
  "about": "“Indole derivatives and processes for preparation thereof” (FUJISAWA PHARMACEUTICAL CO., LTD., priority 1989, dated 1990)",
  "key": {"Benzold-Jarisch reflex": {"system": "Benzold-Jarisch reflex", "assay": "Inhibition of Benzold-Jarisch reflex (bradycardic response to 2-methyl-5-hydroxytryptamine in anesthetized rats)", "type": "in vivo, Male Sprague-Dawley rats", "settings": "dose 3.2 μg/kg iv, given 5 minutes before 2-methyl-5-hydroxytryptamine (32 ug/kg, iv), urethane-anesthetized rats", "from_the_text": "(A) Inhibition of Benzold-Jarisch reflex\nMale Sprague-Dawley rats weighing 260-350 g were anesthetized intraperitoneally with 1.25 g/kg urethane.\nBlood pressure and heart rate were monitored continuously from the left common carotid artery with a pressure transducer. A right femoral vein was connulated for the intravenous injection (iv) of drugs. The trachea was also connulated to ease the respiration.\nRats were given a rapid bolus injection of 2-methyl-5-hydroxytryptamine (32 u.g/kg, iv) to establish the control bradycardic response. Once the heart rate returned to base line, the .rats were given the test compound (iv), followed by 5-minutes interval and another bolus injection of 2-methyl-5-hydroxytryptamine (32 ug/kg, iv)."}, "[1]": {"system": "Cisplatin-induced vomiting", "assay": "Inhibition of Cisplatin-induced vomiting", "type": "in vivo, female beagles", "settings": "dose 100 μg/kg intravenously twice, 10 minutes prior to and 90 minutes after Cisplatin (3.2 mg/kg, iv); observed up to 5 hours", "procedure": "(B) Inhibition of Cisplatin-induced vomiting\nNonfasted female beagles weighing about 10 kg were administered test compound or saline intravenously twice 10 minutes prior to and 90 minutes after Cisplatin dosing (3.2 mg/kg, iv).\nCisplatin was dissolved in 0.9% warm saline with a final concentration of 3 mgiml and used immediately."}},
  "data": [
    {"smiles": "Cc1cn(C(=O)CC2CC3CCC(C2)N3C)c2ccccc12.Cl", "note": "(centres unmarked) [Example 2, 3-methyl-1-[(8-methyl-8-azabicyclo[3.2.1]oct-3-yl)acetyl]indole hydrochloride]", "values": [
      {"measurement": "Inhibition (%)", "setting": "Benzold-Jarisch reflex", "value": 52.9, "unit": "%"},
      {"measurement": "Inhibition (%)", "setting": "[1]", "value": 95.2, "unit": "%"}
    ]}
  ]
}
